Results from BigSolDB 2.1.

O=C1CCCC(=O)O1
solubility (mole fraction)
Details	in 1,2-dichloroethane	in DMAc	in DMF	in acetone	in acetonitrile	in dichloromethane	in ethyl acetate	in methyl acetate	in n-butyl acetate	in n-propyl acetate
278.15 K	0.448	0.73	0.549	0.444	0.591	0.425	0.107	0.294	0.12	0.234
283.15 K	0.555	0.789	0.594	0.524	0.648	0.51	0.156	0.384	0.145	0.301
288.15 K	0.631	0.83	0.663	0.623	0.705	0.597	0.206	0.444	0.181	0.407
293.15 K	0.7	0.852	0.705	0.676	0.764	0.641	0.273	0.551	0.246	0.505
298.15 K	0.773	0.877	0.74	0.76	0.809	0.709	0.383	0.646	0.322	0.592
303.15 K	0.807	0.905	0.795	0.815	0.844	0.78	0.506	0.7	0.451	0.712
308.15 K	0.866	0.923	0.822	0.884	0.879	0.824	0.618	0.808	0.582	0.817
313.15 K	0.922	0.935	0.87	0.918	0.918	0.896	0.75	0.874	0.736	0.908
